# Values of other authors, collected in PubChem BioAssay AID1259409 (Chemical Carcinogenesis Research Information System (CCRIS), 2018).
# System: rodent chemically induced tumor inhibition, incidence and multiplicity
# Test: CCRIS tumor inhibitor studies
# Settings: Promoter: NONE USED
smiles,measurement,setting,value
CCCCCCCCCCCCCCCC(=O)OC/C=C(C)/C=C/C=C(C)/C=C/C1=C(C)CCCC1(C)C,"tumour outcome (control, treated, inhibition, significance)","Carcinogen: 3-METHYLCHOLANTHRENE, 56-49-5, Dose [Inhibitor]: 6 MG IN 0.1 ML ACETONE STARTING 2 WK AFTER CARCINOGEN TREATMENT AND APPLIED 2/WK DURING WK 3-5 OF THE STUDY AND THEN 1/W, Route [Inhibitor]: DERMAL, Species: MOUSE, Strain/Sex: SWISS/FEMALE, Target Tissue: Type of Lesion: SKIN: CARCINOMA, Dose [Carcinogen]: 0.1 ML OF 0.3% DISSOLVED IN ACETONE APPLIED 2/WK FIRST 5 WK THEN 1/WK FOR WK 6-9 FOLLOWED BY NO FURTHER TREATMENT THROUG","5/19 (26%), 4/20 (20%), 23%, not calculated"
same,"tumour outcome (control, treated, inhibition, significance)","Carcinogen: 3-METHYLCHOLANTHRENE, 56-49-5, Dose [Inhibitor]: 6 MG IN 0.1 ML ACETONE STARTING 2 WK AFTER CARCINOGEN TREATMENT AND APPLIED 2/WK DURING WK 3-5 OF THE STUDY AND THEN 1/W, Route [Inhibitor]: DERMAL, Species: MOUSE, Strain/Sex: SWISS/FEMALE, Target Tissue: Type of Lesion: SKIN: PAPILLOMA, Dose [Carcinogen]: 0.1 ML OF 0.3% DISSOLVED IN ACETONE APPLIED 2/WK FIRST 5 WK THEN 1/WK FOR WK 6-9 FOLLOWED BY NO FURTHER TREATMENT THROUG","9/19 (47%), 3/20 (15%), 68%, not calculated"
same,"tumour outcome (control, treated, inhibition, significance)","Carcinogen: 7,12-DIMETHYLBENZ[A]ANTHRACENE, 57-97-6, Dose [Inhibitor]: 0, 5000 IU APPLIED TO EACH CHEEK POUCH 2/WK BEGINNING 15 D POST LAST CARCINOGEN DOSE AND CONTINUING FOR 4.5 MO (STUDY DU, Route [Inhibitor]: DERMAL, Species: HAMSTER, Strain/Sex: SYRIAN/MALE, Target Tissue: Type of Lesion: CHEEK POUCH: TUMOR, Dose [Carcinogen]: 0.125 MG (0.25% LIQUID PARAFFIN SOLUTION) APPLIED TO EACH CHEEK POUCH 2/WK FOR 1 MO","10/15 (67%), 0/20 (0%), 100%, not calculated"
same,"tumour outcome (control, treated, inhibition, significance)","Carcinogen: 7,12-DIMETHYLBENZ[A]ANTHRACENE, 57-97-6, Dose [Inhibitor]: 0, 5000 IU APPLIED TO EACH CHEEK POUCH 2/WK BEGINNING 15 D POST LAST CARCINOGEN DOSE AND CONTINUING FOR 4.5 MO (STUDY DU, Route [Inhibitor]: DERMAL, Species: HAMSTER, Strain/Sex: SYRIAN/MALE, Target Tissue: Type of Lesion: STOMACH: TUMOR, Dose [Carcinogen]: 0.125 MG (0.25% LIQUID PARAFFIN SOLUTION) APPLIED TO EACH CHEEK POUCH 2/WK FOR 1 MO","15/15 (100%), 0/20 (0%), 100%, not calculated"
same,"tumour outcome (control, treated, inhibition, significance)","Carcinogen: 7,12-DIMETHYLBENZ[A]ANTHRACENE, 57-97-6, Dose [Inhibitor]: 20000 IU/KG IN DIET BEGINNING 6 WK PRIOR TO CARCINOGEN DOSE AND CONTINUING FOR 21-22 WK POST CARCINOGEN DOSE (STUDY DURA, Route [Inhibitor]: ORAL, Species: RAT, Strain/Sex: SPRAGUE-DAWLEY/MALE, Target Tissue: Type of Lesion: SALIVARY GLAND: TUMOR, Dose [Carcinogen]: 1 MG IN 20 µL OLIVE OIL INJECTED INTO SUBMANDIBULAR GLAND ONCE","20/28 (71%), 16/29 (55%), 23%, not significant"
same,"tumour outcome (control, treated, inhibition, significance)","Carcinogen: 7,12-DIMETHYLBENZ[A]ANTHRACENE, 57-97-6, Dose [Inhibitor]: 100000 IU/KG IN DIET BEGINNING 6 WK PRIOR TO CARCINOGEN DOSE AND CONTINUING FOR 21-22 WK POST CARCINOGEN DOSE (STUDY DUR, Route [Inhibitor]: ORAL, Species: RAT, Strain/Sex: SPRAGUE-DAWLEY/MALE, Target Tissue: Type of Lesion: SALIVARY GLAND: TUMOR, Dose [Carcinogen]: 1 MG IN 20 µL OLIVE OIL INJECTED INTO SUBMANDIBULAR GLAND ONCE","20/28 (71%), 17/29 (59%), 17%, not significant"
same,"tumour outcome (control, treated, inhibition, significance)","Carcinogen: BENZO[A]PYRENE, 50-32-8, Dose [Inhibitor]: 50, 200 IU/D IN DRINKING WATER FOR 61 WK BEGINNING POST CARCINOGEN TREATMENT (STUDY DURATION: 66 WK), Route [Inhibitor]: ORAL, Species: MOUSE, Strain/Sex: ICR/MALE, Target Tissue: Type of Lesion: FORESTOMACH: CARCINOMA, Dose [Carcinogen]: 20 MG IN 0.2 ML CORN OIL 2/WK FOR 5 WK","8/28 (29%), 5/26 (19%), 34%, not significant"
same,"tumour outcome (control, treated, inhibition, significance)","Carcinogen: BENZO[A]PYRENE, 50-32-8, Dose [Inhibitor]: 50, 200 IU/D IN DRINKING WATER FOR 61 WK BEGINNING POST CARCINOGEN TREATMENT (STUDY DURATION: 66 WK), Route [Inhibitor]: ORAL, Species: MOUSE, Strain/Sex: ICR/MALE, Target Tissue: Type of Lesion: FORESTOMACH: PAPILLOMA, Dose [Carcinogen]: 2 MG IN 0.2 ML CORN OIL 2/WK FOR 5 WK","8/28 (29%), 2/27 (7%), 76%, p<0.05"
same,"tumour outcome (control, treated, inhibition, significance)","Carcinogen: BENZO[A]PYRENE, 50-32-8, Dose [Inhibitor]: 50, 200 IU/D IN DRINKING WATER FOR 61 WK BEGINNING POST CARCINOGEN TREATMENT (STUDY DURATION: 66 WK), Route [Inhibitor]: ORAL, Species: MOUSE, Strain/Sex: ORAL, Target Tissue: Type of Lesion: FORESTOMACH: PAPILLOMA, Dose [Carcinogen]: 20 MG IN O.2 ML CORN OIL 2/WK FOR 5 WK","26/28 (93%), 23/26 (88%), 5%, not significant"
same,"tumour outcome (control, treated, inhibition, significance)","Carcinogen: BENZO[A]PYRENE, 50-32-8, Dose [Inhibitor]: 50, 200 IU/D IN DRINKING WATER FOR DURATION OF STUDY (STUDY DURATION: 66 WK), Route [Inhibitor]: ORAL, Species: MOUSE, Strain/Sex: ICR/MALE, Target Tissue: Type of Lesion: FORESTOMACH: PAPILLOMA, Dose [Carcinogen]: 2 MG IN 0.2 ML CORN OIL 2/WK FOR 5 WK","8/28 (29%), 2/27 (7%), 76%, p,0.05"
same,"tumour outcome (control, treated, inhibition, significance)","Carcinogen: BENZO[A]PYRENE, 50-32-8, Dose [Inhibitor]: 50, 200 IU/D IN DRINKING WATER FOR THE DURATION OF STUDY (STUDY DURATION: 66 WK), Route [Inhibitor]: ORAL, Species: MOUSE, Strain/Sex: ICR/MALE, Target Tissue: Type of Lesion: FORESTOMACH: CARCINOMA, Dose [Carcinogen]: 20 MG IN 0.2 ML CORN OIL 2/WK FOR 5 WK","8/28 (29%), 7/27 (26%), 10%, not significant"
same,"tumour outcome (control, treated, inhibition, significance)","Carcinogen: BENZO[A]PYRENE, 50-32-8, Dose [Inhibitor]: 50, 200 IU/D IN DRINKING WATER FOR THE DURATION OF STUDY (STUDY DURATION: 66 WK), Route [Inhibitor]: ORAL, Species: MOUSE, Strain/Sex: ICR/MALE, Target Tissue: Type of Lesion: FORESTOMACH: PAPILLOMA, Dose [Carcinogen]: 20 MG IN 0.2 ML CORN OIL 2/WK FOR 5 WK","26/28 (93%), 20/27 (74%), 19%, not significant"
same,"tumour outcome (control, treated, inhibition, significance)","Carcinogen: FIBERGLASS DUST, Dose [Inhibitor]: 50 MG/KG BW IN AQUASOL A PLACEBO, 1/3 D FOR 10 TREATMENTS STARTING 3 D POST CARCINOGEN TREATMENT (STUDY DURATION: 90 D), Route [Inhibitor]: INTRAPERITONEAL, Species: MOUSE, Strain/Sex: STRAIN-A/MALE, Target Tissue: Type of Lesion: LUNG: BRONCHIOGENIC OR SEPTAL CELL TUMOR, Dose [Carcinogen]: 300 MG IN 100 G OF STERILIZED PINE SAWDUST BEDDING CHANGED 1/3 D FOR 30 D STARTING 33 D PRIOR TO START OF AGENT TREATMEN","6/12 (50%), 1/12 (8%), 84%, not calculated"
same,"tumour outcome (control, treated, inhibition, significance)","Carcinogen: N-METHYL-N'-NITRO-N-NITROSOGUANIDINE, 70-25-7, Dose [Inhibitor]: 0, 150000 IU/KG DIET FOR 37 WK (STUDY DURATION: 38 WK), Route [Inhibitor]: ORAL, Species: RAT, Strain/Sex: WISTAR/MALE, Target Tissue: Type of Lesion: FORESTOMACH: BENIGN PAPILLOMA, Dose [Carcinogen]: 83 UG/ML IN DISTILLED DRINKING WATER FOR 37 WK","15/51 (29%), 3/28 (11%), 62%, p<0.05"
same,"tumour outcome (control, treated, inhibition, significance)","Carcinogen: N-METHYL-N'-NITRO-N-NITROSOGUANIDINE, 70-25-7, Dose [Inhibitor]: 0, 150000 IU/KG DIET FOR 37 WK (STUDY DURATION: 38 WK), Route [Inhibitor]: ORAL, Species: RAT, Strain/Sex: WISTAR/MALE, Target Tissue: Type of Lesion: GASTROINTESTINAL TRACT (UPPER): MALIGNANT NEOPLASMS, Dose [Carcinogen]: 83 UG/ML IN DISTILLED DRINKING WATER FOR 37 WK","17/51 (33%), 18/28 (64%), -94%, p<0.05"
same,"tumour outcome (control, treated, inhibition, significance)","Carcinogen: N-METHYL-N-NITROSOUREA, 684-93-5, Dose [Inhibitor]: 0.03 MMOL 3/WK STARTING 12 D THROUGH ABOUT 8 MO AFTER FIRST CARCINOGEN DOSE (STUDY DURATION: APPROXIMATELY 8 MO), Route [Inhibitor]: INTRARECTAL, Species: RAT, Strain/Sex: F344/MALE, Target Tissue: Type of Lesion: COLON: ADENOCARCINOMA, Dose [Carcinogen]: 2.5 MG 1/WK FOR 2 WK","3/39 (8%), 4/39 (10%), -25%, not significant"
same,"tumour outcome (control, treated, inhibition, significance)","Carcinogen: N-METHYL-N-NITROSOUREA, 684-93-5, Dose [Inhibitor]: 0.03 MMOL 3/WK STARTING 12 D THROUGH ABOUT 8 MO AFTER FIRST CARCINOGEN DOSE (STUDY DURATION: APPROXIMATELY 8 MO), Route [Inhibitor]: INTRARECTAL, Species: RAT, Strain/Sex: F344/MALE, Target Tissue: Type of Lesion: COLON: ADENOMA, Dose [Carcinogen]: 2.5 MG 1/WK FOR 2 WK","11/39 (28%), 24/39 (62%), -121%, p<0.05"
same,"tumour outcome (control, treated, inhibition, significance)","Carcinogen: N-METHYL-N-NITROSOUREA, 684-93-5, Dose [Inhibitor]: 0.03 MMOL 3/WK STARTING 15 D PRIOR TO THROUGH ABOUT 8 MO AFTER FIRST CARCINOGEN DOSE (STUDY DURATION: APPROXIMATELY 8 MO, Route [Inhibitor]: INTRARECTAL, Species: RAT, Strain/Sex: F344/MALE, Target Tissue: Type of Lesion: COLON: ADENOCARCINOMA, Dose [Carcinogen]: 2.5 MG 1/WK FOR 2 WK","3/39 (8%), 10/38 (26%), -225%, not significant"
same,"tumour outcome (control, treated, inhibition, significance)","Carcinogen: N-METHYL-N-NITROSOUREA, 684-93-5, Dose [Inhibitor]: 0.03 MMOL 3/WK STARTING 15 D PRIOR TO THROUGH ABOUT 8 MO AFTER FIRST CARCINOGEN DOSE (STUDY DURATION: APPROXIMATELY 8 MO, Route [Inhibitor]: INTRARECTAL, Species: RAT, Strain/Sex: F344/MALE, Target Tissue: Type of Lesion: COLON: ADENOMA, Dose [Carcinogen]: 2.5 MG 1/WK FOR 2 WK","11/39 (28%), 24/38 (63%), -125%, p<0.05"
